The values that follow come from US6676932B2, “Ultraviolet absorbent, photostabilizer, ultraviolet ray-absorbing composition, photostabilized composition and external preparation for skin” (Shiseido Co., Ltd., priority 2001, dated 2004).

Holding throughout (assay type): physicochemical
Data set [1] is described as follows: Dye stabilization effect under daylight exposure (Test Examples 6-91). Set-up: key to Δ E: color difference ΔE in Lab vs. color before daylight exposure; key to Appearance (visual determination): ◯: no change; Δ: almost no change; x: change. Conditions: photostabilizer 0.05 wt %, daylight exposure (80 MJ). The protocol:
For observation of the change of the appearance of each test sample (determination based on visual observation) and the measurement of color difference (ΔE) before and after daylight exposure (80 MJ), the test sample was prepared.
(§1) With a spectrophotometer, the color was measured on the Lab coordinate system, to calculate the color difference on the basis of the color before daylight exposure. More specifically, the color difference (ΔE) was calculated on the basis of the measured values (L1, a1, b1) before daylight exposure.

A short description of data set [2]: Dye stabilization effect in blend with sequestering agents (Test Examples 212 to 275). As to conditions: daylight exposure (80 MJ). The method, then: Each test sample was prepared for observation of the change of the appearance of each test sample (determined visually) and measurement of the color difference (ΔE) before and after daylight exposure (80 MJ).
as §1

A short description of data set [3]: Drug stabilization effect under daylight exposure (Test Examples 182 to 211). The arrangement: key to Appearance (visual determination): ◯: no change; Δ: almost no change; x: change. As to conditions: photostabilizer 0.05 wt %, daylight exposure (80 MJ); for Remaining ratio (%): liquid chromatography. The protocol: For observation of the change of the appearance of each test sample (determination based on visual observation) and the measurement of the remaining ratio by liquid chromatography before and after daylight exposure (80 MJ), the test sample was prepared.

Data set [4] in a line: Stabilization effect on perfume under daylight exposure (Test Examples 92 to 181). As to conditions: daylight exposure (80 MJ). Set-up: key: ◯: no change; Δ: almost no change; x: change. The method, then: Each test sample was prepared for observation of the change of the odor of the test sample (determined by perfume coordinator) before and after daylight exposure (80 MJ).

The mark [5] stands for this setting: dye Blue 1 (Brilliant Blue FCF) 0.0001 wt %.
The mark [6] stands for this setting: dye Green 3 (Fast Green FCF) 0.001 wt %.
[7] abbreviates: dye Red 227 (Acid Fuchsine D) 0.0001 wt %.
Setting [8] is: dye Yellow 5 (Sunset Yellow FCF) 0.001 wt %.
Setting [9] is: dyes Red 106 (Acid red) 0.00001 + Yellow 203 (Quinoline Yellow WS) 0.0001 wt %.
[10] abbreviates: dyes Red 213 (Rhodamine B) 0.00001 + Blue 1 (Brilliant Blue FCF) 0.00001 wt %.
Setting [11] is: dyes Red 227 (Acid Fuchsine D) 0.0001 + Yellow 5 (Sunset Yellow FCF) 0.0001 wt %.
Setting [12] is: dyes Red 401 (Violanin R) 0.0001 + Blue 1 (Brilliant Blue FCF) 0.00001 wt %.
[13] abbreviates: dyes Yellow 203 (Quinoline Yellow WS) 0.0001 + Yellow 5 (Sunset Yellow FCF) 0.0001 wt %.
[14] abbreviates: drug Dipotassium glycyrrhizinate 0.05 wt %.
Setting [15] is: drug L-ascorbic acid 2-glucoside 2.0 wt %.
Where [16] appears, read: drug dibutylhydroxytoluene 0.01 wt %.
The mark [17] stands for this setting: drug dl-α-tocopherol 2-L-ascorbic acid phosphate diester potassium salt 0.01 wt %.
[18] abbreviates: base perfume Muge, photostabilizer 0.05 wt %.
Setting [19] is: natural perfume Jasmine oil, photostabilizer 0.05 wt %.
Setting [20] is: synthetic perfume Rose oxide, photostabilizer 0.2 wt %.
[21] abbreviates: dye Green 3 (Fast Green FCF) 0.001, sequestering agent 0.1 alone, photostabilizer 0.
Setting [22] is: dye Yellow 5 (Sunset Yellow FCF) 0.0001, sequestering agent 0.03 alone, photostabilizer 0.

Regarding `COc1cc(O)c(C(=O)c2ccccc2)cc1S(=O)(=O)[O-].[Na+]` [2-Hydroxy-4-methoxybenzophenone-5-sulfonate sodium, reference compound], the “Appearance (visual determination)” value in data set [1] (setting [5]), in data set [1] (setting [6]), in data set [1] (setting [7]) and in data set [1] (setting [8]) was “Δ” in each case. The “Δ E” value in data set [1] (setting [5]) came to 1.67; in data set [1] (setting [6]), 0.74; in data set [1] (setting [7]) it was 0.80; in data set [1] (setting [8]) it was 0.78.
As to `Oc1nncc(N2CCCCC2)c1N1CCCCC1` [4,5-Dipiperidino-33-hydroxy pyridazine], the “Δ E” value is on record as 1.52 in data set [2] (dyes Red 401 (Violanin R) 0.0001 + Green 3 (Fast Green FCF) 0.00001, no sequestering agent, photostabilizer blend amount 0.02) and 0.77 in data set [2] (dyes Red 401 (Violanin R) 0.0001 + Green 3 (Fast Green FCF) 0.00001, with sodium metaphosphate 0.03, photostabilizer blend amount 0.02).
For the compound `COc1ccc(C(=O)c2ccccc2)c(O)c1` [2-Hydroxy-4-methoxybenzophenone, reference compound], the “Appearance (visual determination)” value in data set [1] (setting [5]), in data set [1] (setting [6]), in data set [1] (setting [7]), in data set [1] (setting [8]), in data set [1] (setting [9]) and in data set [1] (setting [10]) was “Δ” throughout. The “Appearance (visual determination)” value is reported as “Δ” in data set [1] (setting [11]); “Δ” in data set [1] (setting [12]); “◯” in data set [1] (setting [13]); “Δ” in data set [3] (setting [14]); “Δ” in data set [3] (setting [15]); “Δ” in data set [3] (setting [16]). In addition, the “Appearance (visual determination)” value in data set [3] (setting [17]) and in data set [3] (drug salicylic acid 0.1 wt %) was “Δ” in each case. Moreover, the “Δ E” value was 1.76 in data set [1] (setting [5]); 0.75 in data set [1] (setting [6]); 0.71 in data set [1] (setting [7]); 0.82 in data set [1] (setting [8]); 1.11 in data set [1] (setting [9]); 1.26 in data set [1] (setting [10]). Also, the “Δ E” value came out at 0.88 in data set [1] (setting [11]), 0.82 in data set [1] (setting [12]) and 0.52 in data set [1] (setting [13]). Besides, the “Remaining ratio (%)” value in data set [3] (setting [14]) was 97.8%; in data set [3] (setting [15]) it was 97.8%; in data set [3] (setting [16]), 95.2%; in data set [3] (setting [17]), 95.4%; in data set [3] (drug salicylic acid 0.1 wt %) it was 98.2%. The odor determination result is reported as “Δ” in data set [4] (base perfume Fruity, photostabilizer 0.1 wt %); “Δ” in data set [4] (setting [18]); “Δ” in data set [4] (base perfume Rose, photostabilizer 0.05 wt %); “Δ” in data set [4] (base perfume Spicy, photostabilizer 0.2 wt %); “Δ” in data set [4] (base perfume Woody, photostabilizer 0.1 wt %); “Δ” in data set [4] (setting [19]). In addition, the odor determination result is given as “Δ” in data set [4] (natural perfume Lavender oil, photostabilizer 0.1 wt %); “Δ” in data set [4] (natural perfume Nelori oil, photostabilizer 0.1 wt %); “Δ” in data set [4] (natural perfume Rose oil, photostabilizer 0.05 wt %); “Δ” in data set [4] (natural perfume Ylang ylang oil, photostabilizer 0.2 wt %); “Δ” in data set [4] (synthetic perfume Citral, photostabilizer 0.1 wt %); “Δ” in data set [4] (synthetic perfume Limonene oil, photostabilizer 0.05 wt %). The odor determination entry in data set [4] (synthetic perfume Linalool, photostabilizer 0.05 wt %) is recorded as “Δ”; in data set [4] (synthetic perfume Linalyl acetate, photostabilizer 0.1 wt %), “Δ”; in data set [4] (setting [20]), “Δ”.
Turning to sodium polyphosphate, the “Δ E” value in data set [2] (setting [21]) is 1.75; in data set [2] (setting [22]), 1.70.
For `O=C([O-])CN(CCN(CC(=O)[O-])CC(=O)O)CC(=O)[O-].[Na+].[Na+].[Na+]` [ethylenediaminetetraacetate trisodium], the “Δ E” value in data set [2] (dye Blue 1 (Brilliant Blue FCF) 0.001, sequestering agent 0.05 alone, photostabilizer 0) was determined as 8.32; in data set [2] (setting [21]) it was 1.75; in data set [2] (dye Red 227 (Acid Fuchsine D) 0.0001, sequestering agent 0.02 alone, photostabilizer 0), 1.40; in data set [2] (setting [22]), 1.72; in data set [2] (dyes Red 106 (Acid Red) 0.00001 + Yellow 5 (Sunset Yellow FCF) 0.0001, sequestering agent blend amount 0.02, photostabilizer 0), 4.26; in data set [2] (dyes Red 227 (Acid Fuchsine D) 0.0001 + Yellow 5 (Sunset Yellow FCF) 0.0001, sequestering agent blend amount 0.02, photostabilizer 0), 1.55. For the same compound, the “Δ E” value in data set [2] (dyes Red 401 (Violanin R) 0.0001 + Blue 1 (Brilliant Blue FCF) 0.00001, sequestering agent blend amount 0.03, photostabilizer 0) was 3.02.
For `OCCNc1ccc(NCCO)nn1` [3,6-Bis(2-hydroxyethylamino) pyridazine], the “Δ E” value in data set [2] (dyes Yellow 203 (Quinoline Yellow WS) 0.0001 + Yellow 5 (Sunset Yellow FCF) 0.0001, no sequestering agent, photostabilizer blend amount 0.02) came out at 0.88; in data set [2] (dyes Yellow 203 (Quinoline Yellow WS) 0.0001 + Yellow 5 (Sunset Yellow FCF) 0.0001, with sodium metaphosphate 0.01, photostabilizer blend amount 0.02) it was 0.55.
Turning to `CCCCC(CC)COC(=O)/C=C/c1ccc(OC)cc1` (stereo not drawn) [p-Methoxycinnamate octyl, reference compound], the “Appearance (visual determination)” value in data set [1] (setting [5]), in data set [1] (setting [6]), in data set [1] (setting [7]) and in data set [1] (setting [8]) was “x” in each case. The “Δ E” value was found to be 5.23 in data set [1] (setting [5]), 1.64 in data set [1] (setting [6]), 1.22 in data set [1] (setting [7]) and 1.56 in data set [1] (setting [8]).
With `OCCN(CCO)c1cnnc(O)c1` [5-bis(2-hydroxyethyl)amino-3-hydroxypyridazine], the “Appearance (visual determination)” value in data set [1] (setting [5]), in data set [1] (setting [6]), in data set [1] (setting [7]), in data set [1] (setting [8]) and in data set [1] (setting [9]) was “◯” each time. In addition, the “Δ E” value came out at 1.29 in data set [1] (setting [5]); 0.62 in data set [1] (setting [6]); 0.55 in data set [1] (setting [7]); 0.65 in data set [1] (setting [8]); 0.85 in data set [1] (setting [9]). The odor determination result in data set [4] (setting [18]), in data set [4] (setting [19]) and in data set [4] (setting [20]) was “◯” in each case.
As for `Oc1nncc(N2CCCCC2)c1N1CCCCC1` [4,5-Dipipendino-3-hydroxypyridazine], the “Δ E” value came out at 1.12 in data set [2] (dyes Red 227 (Acid Fuchsine D) 0.0001 + Yellow 5 (Sunset Yellow FCF) 0.0001, no sequestering agent, photostabilizer blend amount 0.01) and 0.68 in data set [2] (dyes Red 227 (Acid Fuchsine D) 0.0001 + Yellow 5 (Sunset Yellow FCF) 0.0001, with ethylenediaminetetraacetate trisodium 0.02, photostabilizer blend amount 0.01).
